# According to US10526316B2, “Quinoxaline and pyridopyrazine derivatives as PI3Kβ inhibitors” (Janssen Pharmaceutica NV, priority 2015, dated 2020):
# Read-outs that look alike come from different tables or passages of the source.
# What was measured:
# [1] = tested on: Akt phosphorylated at Ser473 in PC-3 cells; experiment: Cellular assay: phosphorylation of Akt at Ser473 in PC-3 cells (MSD ELISA); assay type: cell-based; conditions: PC-3 cells, 60 min compound incubation, MSD ELISA, read-out: IC50 pAkt_S473
# Outline: (§1)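 Compound treatment of PC-3 cells lasted 60 min at 37° C (0.3% DMSO). Lysates were then applied to plates carrying capture antibodies for the relevant phospho-site, and bound Akt was detected with an electrochemiluminescent anti-total Akt antibody; IC50s derive from five-point curves.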
# PI3Kδ = molecular target: T1, PI3Kδ (Homo sapiens, UniProt O00329); experiment: Enzyme binding assay (KINOMEscan, DiscoveRx); conditions: PIK3Cδ_h
# T1 construct: purchased DiscoveRx Corporation, San Diego (contract service, KINOMEscan)
# T1 sequence (O00329 1-1044): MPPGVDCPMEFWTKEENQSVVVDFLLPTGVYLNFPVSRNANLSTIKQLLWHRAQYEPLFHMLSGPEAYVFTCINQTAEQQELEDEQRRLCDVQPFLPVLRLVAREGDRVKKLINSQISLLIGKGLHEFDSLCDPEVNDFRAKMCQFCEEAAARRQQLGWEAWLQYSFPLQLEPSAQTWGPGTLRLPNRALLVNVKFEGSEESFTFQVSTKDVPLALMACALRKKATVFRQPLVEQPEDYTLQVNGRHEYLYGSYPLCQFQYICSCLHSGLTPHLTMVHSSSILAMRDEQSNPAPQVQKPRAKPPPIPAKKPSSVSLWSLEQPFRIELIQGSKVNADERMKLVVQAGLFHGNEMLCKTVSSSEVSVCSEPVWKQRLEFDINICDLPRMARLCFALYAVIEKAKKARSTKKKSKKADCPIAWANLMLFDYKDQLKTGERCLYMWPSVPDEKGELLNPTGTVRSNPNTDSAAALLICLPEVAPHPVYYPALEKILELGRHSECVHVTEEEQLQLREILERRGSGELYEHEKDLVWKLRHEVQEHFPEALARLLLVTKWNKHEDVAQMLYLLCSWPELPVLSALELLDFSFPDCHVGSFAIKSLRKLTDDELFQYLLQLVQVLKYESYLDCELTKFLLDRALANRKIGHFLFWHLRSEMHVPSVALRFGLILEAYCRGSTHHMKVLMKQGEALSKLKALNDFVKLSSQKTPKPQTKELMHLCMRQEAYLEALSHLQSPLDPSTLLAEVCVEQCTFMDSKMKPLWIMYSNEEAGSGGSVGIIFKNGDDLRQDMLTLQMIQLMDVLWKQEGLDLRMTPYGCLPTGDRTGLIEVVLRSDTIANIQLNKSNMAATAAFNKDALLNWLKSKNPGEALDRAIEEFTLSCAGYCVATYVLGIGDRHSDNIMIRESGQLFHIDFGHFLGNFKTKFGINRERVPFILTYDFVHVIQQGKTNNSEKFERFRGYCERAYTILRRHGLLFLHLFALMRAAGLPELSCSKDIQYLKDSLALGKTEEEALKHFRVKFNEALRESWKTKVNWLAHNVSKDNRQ
# Outline: (§2)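 Binding affinities were measured on the KINOMEscan platform.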
# kinase enzymes [2] = molecular target: T2, kinase enzymes (Homo sapiens, UniProt P42345); experiment: Enzyme binding assay (KINOMEscan, DiscoveRx), further kinases of Table A; conditions: MTOR_h
# T2 construct: purchased DiscoveRx Corporation, San Diego (contract service, KINOMEscan)
# Outline: as §2
# kinase enzymes [3] = molecular target: T3, kinase enzymes (Homo sapiens, UniProt P42336); experiment: as above; conditions: PIK3Cα_h
# T3 construct: purchased DiscoveRx Corporation, San Diego (contract service, KINOMEscan)
# Outline: as §2
# kinase enzymes [4] = molecular target: T4, kinase enzymes (Homo sapiens, UniProt P48736); experiment: as above; conditions: PIK3Cγ_h
# T4 construct: purchased DiscoveRx Corporation, San Diego (contract service, KINOMEscan)
# Outline: as §2
# PI3Kβ = molecular target: T5, PI3Kβ (Homo sapiens, UniProt P42338); experiment: Enzyme binding assay (KINOMEscan, DiscoveRx); conditions: PIK3Cβ_h, read-out: Kd PIK3Cβ_h
# T5 construct: purchased DiscoveRx Corporation, San Diego (contract service, KINOMEscan)
# Outline: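 Kinase binding affinities were measured with KINOMEscan technology. Results are given as Kd, the inhibitor binding constant, in nM.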
# [5] = tested on: Akt phosphorylated at Thr308 in PC-3 cells; experiment: Cellular assay: phosphorylation of Akt at Thr308 in PC-3 cells (MSD ELISA); assay type: cell-based; conditions: PC-3 cells, 60 min compound incubation, MSD ELISA, read-out: IC50 pAkt_Thr308
# Outline: as §1
# T4 sequence (P48736 whole entry): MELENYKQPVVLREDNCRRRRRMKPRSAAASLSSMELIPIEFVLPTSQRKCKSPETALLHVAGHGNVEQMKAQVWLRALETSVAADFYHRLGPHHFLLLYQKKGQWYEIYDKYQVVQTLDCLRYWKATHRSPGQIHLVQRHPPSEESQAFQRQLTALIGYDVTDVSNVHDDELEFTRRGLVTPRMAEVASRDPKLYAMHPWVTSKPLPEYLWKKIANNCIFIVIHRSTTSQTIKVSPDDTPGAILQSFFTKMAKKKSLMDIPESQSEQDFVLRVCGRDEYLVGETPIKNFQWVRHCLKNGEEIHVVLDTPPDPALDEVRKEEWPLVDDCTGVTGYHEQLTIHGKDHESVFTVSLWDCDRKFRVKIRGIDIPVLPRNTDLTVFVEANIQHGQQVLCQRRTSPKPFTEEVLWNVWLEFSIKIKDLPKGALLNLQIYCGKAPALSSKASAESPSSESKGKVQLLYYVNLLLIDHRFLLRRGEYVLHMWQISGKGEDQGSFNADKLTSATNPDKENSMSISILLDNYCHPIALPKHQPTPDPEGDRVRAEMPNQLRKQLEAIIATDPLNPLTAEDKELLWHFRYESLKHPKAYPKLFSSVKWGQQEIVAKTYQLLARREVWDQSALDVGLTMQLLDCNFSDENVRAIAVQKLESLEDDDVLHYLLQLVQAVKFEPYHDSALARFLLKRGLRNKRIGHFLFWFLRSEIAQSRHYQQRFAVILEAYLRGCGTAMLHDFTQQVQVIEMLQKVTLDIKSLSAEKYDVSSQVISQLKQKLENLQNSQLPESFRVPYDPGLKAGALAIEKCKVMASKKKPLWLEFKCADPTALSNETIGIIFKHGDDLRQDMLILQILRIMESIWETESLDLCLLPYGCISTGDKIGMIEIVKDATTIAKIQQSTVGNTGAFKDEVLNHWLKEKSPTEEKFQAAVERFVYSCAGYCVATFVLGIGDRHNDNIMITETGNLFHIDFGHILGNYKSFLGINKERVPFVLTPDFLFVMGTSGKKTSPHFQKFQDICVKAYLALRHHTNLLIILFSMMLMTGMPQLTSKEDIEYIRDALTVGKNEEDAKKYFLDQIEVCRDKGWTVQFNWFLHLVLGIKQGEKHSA
# T5 sequence (P42338 whole entry): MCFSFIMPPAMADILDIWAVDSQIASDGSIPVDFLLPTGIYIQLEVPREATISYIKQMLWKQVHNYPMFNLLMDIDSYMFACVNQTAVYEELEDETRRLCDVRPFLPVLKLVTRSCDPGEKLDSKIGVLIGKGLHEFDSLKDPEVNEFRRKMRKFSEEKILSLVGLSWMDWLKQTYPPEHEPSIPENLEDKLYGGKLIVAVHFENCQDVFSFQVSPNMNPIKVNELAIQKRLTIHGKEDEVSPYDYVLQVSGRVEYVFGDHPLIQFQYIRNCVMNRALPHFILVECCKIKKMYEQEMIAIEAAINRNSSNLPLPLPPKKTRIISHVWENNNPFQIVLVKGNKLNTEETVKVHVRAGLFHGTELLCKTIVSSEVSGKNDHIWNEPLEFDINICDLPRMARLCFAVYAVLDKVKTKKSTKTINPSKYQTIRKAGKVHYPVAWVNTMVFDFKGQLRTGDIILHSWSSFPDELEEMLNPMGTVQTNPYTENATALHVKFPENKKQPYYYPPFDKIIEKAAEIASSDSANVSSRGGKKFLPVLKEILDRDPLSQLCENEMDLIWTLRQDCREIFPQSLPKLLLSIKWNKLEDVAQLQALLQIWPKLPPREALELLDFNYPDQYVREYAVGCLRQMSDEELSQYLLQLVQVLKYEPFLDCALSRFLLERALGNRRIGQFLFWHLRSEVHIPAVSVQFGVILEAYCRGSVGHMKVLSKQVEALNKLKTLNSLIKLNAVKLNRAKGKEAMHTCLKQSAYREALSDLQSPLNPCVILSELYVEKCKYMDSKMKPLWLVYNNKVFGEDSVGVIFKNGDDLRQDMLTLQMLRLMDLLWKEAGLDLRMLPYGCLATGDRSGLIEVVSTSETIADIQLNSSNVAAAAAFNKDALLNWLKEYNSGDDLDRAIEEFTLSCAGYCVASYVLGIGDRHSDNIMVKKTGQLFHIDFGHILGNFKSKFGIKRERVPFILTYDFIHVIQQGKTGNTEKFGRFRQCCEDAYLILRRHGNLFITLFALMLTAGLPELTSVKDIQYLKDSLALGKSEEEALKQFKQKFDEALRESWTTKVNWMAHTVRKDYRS
# T3 sequence (P42336 whole entry): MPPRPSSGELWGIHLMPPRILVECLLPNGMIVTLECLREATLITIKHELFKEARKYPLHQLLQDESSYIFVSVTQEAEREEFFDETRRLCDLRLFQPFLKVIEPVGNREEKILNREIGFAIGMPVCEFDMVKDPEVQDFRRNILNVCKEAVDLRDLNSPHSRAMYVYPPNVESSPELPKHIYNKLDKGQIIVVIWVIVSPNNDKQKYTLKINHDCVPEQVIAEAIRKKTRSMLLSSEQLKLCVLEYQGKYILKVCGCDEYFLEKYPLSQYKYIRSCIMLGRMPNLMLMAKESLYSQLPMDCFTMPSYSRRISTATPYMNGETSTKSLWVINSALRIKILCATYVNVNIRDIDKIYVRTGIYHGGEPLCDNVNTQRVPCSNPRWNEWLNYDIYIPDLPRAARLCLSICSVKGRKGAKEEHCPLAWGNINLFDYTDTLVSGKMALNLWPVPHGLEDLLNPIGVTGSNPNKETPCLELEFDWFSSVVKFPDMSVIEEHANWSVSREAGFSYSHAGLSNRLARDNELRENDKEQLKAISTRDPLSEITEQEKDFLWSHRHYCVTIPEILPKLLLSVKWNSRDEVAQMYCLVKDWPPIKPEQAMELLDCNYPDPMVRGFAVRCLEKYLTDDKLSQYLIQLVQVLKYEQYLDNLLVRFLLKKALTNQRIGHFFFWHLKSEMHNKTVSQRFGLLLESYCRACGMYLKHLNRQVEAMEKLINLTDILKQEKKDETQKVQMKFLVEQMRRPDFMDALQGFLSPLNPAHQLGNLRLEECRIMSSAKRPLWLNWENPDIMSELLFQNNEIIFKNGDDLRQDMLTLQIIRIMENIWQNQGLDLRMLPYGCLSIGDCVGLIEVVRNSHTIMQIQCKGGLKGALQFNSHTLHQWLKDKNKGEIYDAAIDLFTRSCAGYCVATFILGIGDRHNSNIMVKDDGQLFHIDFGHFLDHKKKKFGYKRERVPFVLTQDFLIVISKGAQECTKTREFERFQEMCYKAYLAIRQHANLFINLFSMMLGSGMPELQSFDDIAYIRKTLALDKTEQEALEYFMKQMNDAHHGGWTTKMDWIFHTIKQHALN
SMILES,"IC50 ([1]; Homo sapiens, PC-3, 1 h)",Kd (PI3Kδ),Kd (kinase enzymes [2]),Kd (kinase enzymes [3]),Kd (kinase enzymes [4]),Kd (PI3Kβ),IC50 [5],IC50 [1],"IC50 ([5]; Homo sapiens, PC-3, 1 h)"
"COC1CN(Cc2cc(C(C)Nc3cc(F)cc(F)c3)c3nc(N4CCOCC4)cnc3c2)CC1OC (single isomer, unassigned) [Compound 205]",> 513 nM,17400 nM,> 30200 nM,> 30200 nM,> 30200 nM,204 nM,> 513 nM,,
"COC1CN(Cc2cc(C(C)Nc3cc(F)cc(F)c3)c3nc(N4CCOCC4)cnc3c2)CC1OC (single isomer, unassigned) [Compound 207]",,891 nM,7940 nM,5250 nM,16200 nM,6 nM,105 nM,372 nM,
"CC(Nc1cc(F)cc(F)c1)c1cc(CN2C[C@@H](C)O[C@@H](C)C2)cc2ncc(N3CCOCC3)nc12 (single isomer, unassigned) [Compound 208]",,1410 nM,> 30200 nM,3470 nM,> 30200 nM,8 nM,83 nM,186 nM,
"CC(Nc1cc(F)c(F)c(F)c1)c1cc(C(=O)NCCO)cc2ncc(N3CCOCC3)nc12 (single isomer, unassigned) [Compound 214]",,> 30200 nM,> 30200 nM,> 30200 nM,4570 nM,1230 nM,> 513 nM,> 513 nM,
"CC(Nc1cc(F)cc(F)c1)c1cc(C(=O)NS(=O)(=O)C2CC2)cc2ncc(N3CCOCC3)nc12 (single isomer, unassigned) [Compound 219]",> 513 nM,275 nM,3310 nM,93 nM,955 nM,1 nM,,,> 513 nM
"CC(Nc1cc(F)cc(F)c1)c1cc(C(=O)NS(=O)(=O)C2CC2)cc2ncc(N3CCOCC3)nc12 (single isomer, unassigned) [Compound 220]",,> 30200 nM,6460 nM,25700 nM,25700 nM,2750 nM,> 513 nM,> 513 nM,
"CC(C)NCCNC(=O)c1cc(C(C)Nc2cccc(F)c2)c2nc(N3CCOCC3)cnc2c1 (single isomer, unassigned) [Compound 228]",,15500 nM,> 30200 nM,6170 nM,4070 nM,603 nM,347 nM,> 513 nM,
"CC(Nc1cc(F)cc(F)c1)c1cc(C(=O)N2CCNC(C(F)(F)F)C2)cc2ncc(N3CCOCC3)nc12 (single isomer, unassigned) [Compound 237b]",,7760 nM,> 30200 nM,8710 nM,> 30200 nM,74 nM,> 513 nM,> 513 nM,
"CC(Nc1cc(F)cc(F)c1)c1cc(C(=O)N2CCNC(C(F)(F)F)C2)cc2ncc(N3CCOCC3)nc12 (single isomer, unassigned) [Compound 237c]",,234 nM,> 30200 nM,372 nM,5490 nM,4 nM,11 nM,26 nM,
"CC(Nc1cc(F)cc(F)c1)c1cc(C(=O)N2CCNC(C(F)(F)F)C2)cc2ncc(N3CCOCC3)nc12 (single isomer, unassigned) [Compound 237d]",,19500 nM,> 30200 nM,12600 nM,> 30200 nM,240 nM,> 513 nM,> 513 nM,
"O=C(NCCO)c1cc(N2CCCC2c2cc(F)cc(F)c2)c2nc(N3CCOCC3)cnc2c1 (single isomer, unassigned) [Compound 244]",> 513 nM,4170 nM,20000 nM,8320 nM,12600 nM,741 nM,,,> 513 nM
"O=C(NCCO)c1cc(N2CCCC2c2cc(F)cc(F)c2)c2nc(N3CCOCC3)cnc2c1 (single isomer, unassigned) [Compound 245]",,1050 nM,21900 nM,8710 nM,13200 nM,72 nM,> 513 nM,> 513 nM,

# The remaining lines, values ahead:
"IC50 ([1]; Homo sapiens, PC-3, 1 h)",Kd (PI3Kδ),Kd (kinase enzymes [2]),Kd (kinase enzymes [3]),Kd (kinase enzymes [4]),Kd (PI3Kβ),IC50 [5],IC50 [1],"IC50 ([5]; Homo sapiens, PC-3, 1 h)",SMILES
44 nM,3890 nM,26900 nM,813 nM,6760 nM,4 nM,,,24 nM,"CC(Nc1cc(F)cc(F)c1)c1cc(C(=O)NC[C@H](C)O)cc2ncc(N3CCOCC3)nc12 (single isomer, unassigned) [Compound 246a]"
,> 30200 nM,> 30200 nM,> 30200 nM,> 30200 nM,> 30200 nM,> 513 nM,> 513 nM,,"COC(=O)c1cc(C2CCCN2c2cc(F)cc(F)c2)c2nc(N3CCOCC3)cnc2c1 (single isomer, unassigned) [Compound 252]"
> 513 nM,468 nM,2820 nM,851 nM,3090 nM,22 nM,,,> 513 nM,"CC(Oc1cccc(F)c1)c1cc(C(=O)O)cc2ncc(N3CCOCC3)nc12 (single isomer, unassigned) [Compound 257b]"
,3020 nM,1660 nM,1700 nM,3160 nM,603 nM,> 513 nM,> 513 nM,,"CC(Oc1cccc(F)c1)c1cc(C(=O)O)cc2ncc(N3CCOCC3)nc12 (single isomer, unassigned) [Compound 257c]"
,21400 nM,> 30200 nM,22400 nM,24500 nM,813 nM,> 513 nM,> 513 nM,,"CC(Nc1ccc(F)c(F)c1)c1cc(C(=O)NCCCO)cc2ncc(N3CCOCC3)nc12 (single isomer, unassigned) [Compound 280b]"
,3470 nM,> 30200 nM,6170 nM,7410 nM,151 nM,> 513 nM,> 513 nM,,"CC(Nc1ccc(F)c(F)c1)c1cc(C(=O)NCCN(C)C)cc2ncc(N3CCOCC3)nc12 (single isomer, unassigned) [Compound 281b]"
,5750 nM,25700 nM,10200 nM,> 30200 nM,182 nM,> 513 nM,> 513 nM,,"CC(C)NCCNC(=O)c1cc(C(C)Oc2ccc(F)c(F)c2)c2nc(N3CCOCC3)cnc2c1 (single isomer, unassigned) [Compound 286a]"
,234 nM,> 30200 nM,1740 nM,20900 nM,3 nM,34 nM,31 nM,,"CC(Nc1ccc(F)c(F)c1)c1cc(C(=O)N2CCN3CCC[C@H]3C2)cc2ncc(N3CCOCC3)nc12 (single isomer, unassigned) [Compound 287a]"
,> 30200 nM,> 30200 nM,> 30200 nM,> 30200 nM,14800 nM,> 513 nM,> 513 nM,,"CC(Nc1cc(F)c(F)c(F)c1)c1cc(C(=O)NCC(C)(C)O)cc2ncc(N3CCOCC3)nc12 (single isomer, unassigned) [Compound 292b]"
,6760 nM,14500 nM,6460 nM,> 30200 nM,288 nM,> 513 nM,> 513 nM,,"Cc1ccc(NC(C)c2cc(C(=O)NCCO)cc3ncc(N4CCOCC4)nc23)cc1F (single isomer, unassigned) [Compound 295a]"
